Data: patent publication US6147100A, “Pyrrolidine derivatives having phospholipase A2 inhibitory activity” (Shionogi & Co., Ltd., priority 1997, dated 2000)

Key:
cPLA2 = molecular target: T1, cPLA2 (Homo sapiens, UniProt P47712); assay: cPLA2 Inhibitory Activity; type: biochemical; details: 1-palmitoyl-2-[14C]-arachidonoyl-sn-glycero-3-phosphocholine 2.5 μM, sn-1,2-dioleoylglycerol 1.25 μM; pH 7.5, 15 min at 37° C.
T1 sequence (P47712 1-749): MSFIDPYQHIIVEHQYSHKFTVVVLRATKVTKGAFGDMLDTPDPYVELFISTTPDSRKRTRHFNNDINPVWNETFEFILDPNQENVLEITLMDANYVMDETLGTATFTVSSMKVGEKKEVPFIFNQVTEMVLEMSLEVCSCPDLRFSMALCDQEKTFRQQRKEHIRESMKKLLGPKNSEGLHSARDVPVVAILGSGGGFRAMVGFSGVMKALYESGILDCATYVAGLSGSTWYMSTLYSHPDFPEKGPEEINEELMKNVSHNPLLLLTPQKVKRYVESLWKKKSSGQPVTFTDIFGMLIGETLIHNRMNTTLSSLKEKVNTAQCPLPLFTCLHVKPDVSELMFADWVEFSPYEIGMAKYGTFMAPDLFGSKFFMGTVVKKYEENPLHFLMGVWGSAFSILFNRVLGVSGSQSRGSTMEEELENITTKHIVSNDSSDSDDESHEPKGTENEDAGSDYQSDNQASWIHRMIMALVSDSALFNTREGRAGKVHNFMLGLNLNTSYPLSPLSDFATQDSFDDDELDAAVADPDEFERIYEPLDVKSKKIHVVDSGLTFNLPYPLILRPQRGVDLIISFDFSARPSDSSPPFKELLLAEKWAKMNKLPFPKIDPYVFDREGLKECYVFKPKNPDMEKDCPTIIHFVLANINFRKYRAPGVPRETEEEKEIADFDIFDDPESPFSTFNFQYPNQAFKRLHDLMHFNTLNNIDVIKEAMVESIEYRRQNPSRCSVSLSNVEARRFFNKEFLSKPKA
In short: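 Radiometric assay in 50 mM HEPES pH 7.5 with 1 mM CaCl2, 150 mM NaCl, 0.1 mg/ml BSA and 1.7 mM DTT; compound and substrate added, reaction started with enzyme, 15 min at 37° C. Released fatty acids extracted (Dole method), counted by liquid scintillation versus no-compound control.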

[1] = system: production of prostaglandin E2 by human fibroblasts; assay: Inhibition of Production of Prostaglandin E2 in Human Fibroblasts (IL-1 stimulation); type: cell-based; details: Fibroblast; human fibroblasts under stimulation with IL-1
In short: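 Human fibroblasts stimulated with IL-1, with prostaglandin E2 production measured in the presence of compound as a cellular read-out of cPLA2 inhibition.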

CC(C)c1cccc(-c2ccccc2)c1O[C@@H]1C[C@@H](CNC(=O)c2ccc(/C=C3\SC(=O)NC3=O)cc2)N(C(=O)c2ccccc2C(=O)c2ccc(F)cc2)C1 [Compound A-104]
IC50 (cPLA2): 38 nM
IC50 [1]: 1300 nM

COc1ccccc1-c1ccccc1O[C@@H]1C[C@@H](CNC(=O)c2ccc(/C=C3\SC(=O)NC3=O)cc2)N(C(=O)c2ccccc2C(=O)c2ccc(F)cc2)C1 [Compound A-107]
IC50 (cPLA2): 41 nM
IC50 [1]: 1100 nM

Cc1cccc(-c2ccccc2O[C@@H]2C[C@@H](CNC(=O)c3ccc(/C=C4\SC(=O)NC4=O)cc3)N(C(=O)c3ccccc3C(=O)c3ccc(F)cc3)C2)c1 [Compound A-108]
IC50 (cPLA2): 44 nM
IC50 [1]: 470 nM

O=C1NC(=O)/C(=C/c2ccc(C(=O)NC[C@@H]3C[C@@H](Oc4ccccc4-c4cccc(C(F)(F)F)c4)CN3C(=O)c3ccccc3C(=O)c3ccc(F)cc3)cc2)S1 [Compound A-109]
IC50 (cPLA2): 59 nM
IC50 [1]: 1200 nM

O=C1NC(=O)/C(=C/c2ccc(C(=O)NC[C@@H]3C[C@@H](Oc4ccccc4-c4cccc([N+](=O)[O-])c4)CN3C(=O)c3ccccc3C(=O)c3ccc(F)cc3)cc2)S1 [Compound A-111]
IC50 (cPLA2): 66 nM
IC50 [1]: 470 nM

O=C1NC(=O)/C(=C/c2ccc(C(=O)NC[C@@H]3C[C@@H](Oc4ccccc4-c4cccc(-c5ccccc5)c4)CN3C(=O)c3ccccc3C(=O)c3ccc(F)cc3)cc2)S1 [Compound A-112]
IC50 (cPLA2): 65 nM
IC50 [1]: 1700 nM

CC(C)c1ccccc1-c1ccccc1O[C@@H]1C[C@@H](CNC(=O)c2ccc(/C=C3\SC(=O)NC3=O)cc2)N(C(=O)c2ccccc2C(=O)c2ccc(F)cc2)C1 [Compound A-115]
IC50 (cPLA2): 10 nM
IC50 [1]: 4600 nM

COc1cccc(-c2ccccc2)c1O[C@@H]1C[C@@H](CNC(=O)c2ccc(/C=C3\SC(=O)NC3=O)cc2)N(C(=O)c2ccccc2C(=O)c2ccc(F)cc2)C1 [Compound A-117]
IC50 (cPLA2): 15 nM
IC50 [1]: 200 nM

COc1cccc(-c2cccc3ccccc23)c1O[C@@H]1C[C@@H](CNC(=O)c2ccc(/C=C3\SC(=O)NC3=O)cc2)N(C(=O)c2ccccc2C(=O)c2ccc(F)cc2)C1 [Compound A-118]
IC50 (cPLA2): 8 nM
IC50 [1]: 2200 nM

O=C1NC(=O)/C(=C/c2ccc(C(=O)NC[C@@H]3C[C@@H](Oc4ccccc4Oc4ccccc4)CN3C(=O)c3ccccc3C(=O)c3ccc(F)cc3)cc2)S1 [Compound A-119]
IC50 (cPLA2): 30 nM
IC50 [1]: 2800 nM

COc1cccc(-c2ccccc2C(C)C)c1O[C@@H]1C[C@@H](CNC(=O)c2ccc(/C=C3\SC(=O)NC3=O)cc2)N(C(=O)c2ccccc2C(=O)c2ccc(F)cc2)C1 [Compound A-120]
IC50 (cPLA2): 29 nM
IC50 [1]: 740 nM

COc1cccc(-c2ccccc2OC(C)C)c1O[C@@H]1C[C@@H](CNC(=O)c2ccc(/C=C3\SC(=O)NC3=O)cc2)N(C(=O)c2ccccc2C(=O)c2ccc(F)cc2)C1 [Compound A-122]
IC50 (cPLA2): 35 nM
IC50 [1]: 1400 nM

O=C1NC(=O)/C(=C/c2ccc(NC(=O)[C@@H]3C[C@@H](OCc4ccccc4-c4ccccc4)CN3C(=O)c3ccccc3C(=O)c3ccc(F)cc3)cc2)S1 [Compound B-1]
IC50 (cPLA2): 210 nM
IC50 [1]: 12000 nM

O=C1NC(=S)S/C1=C\c1ccc(NC(=O)[C@@H]2C[C@@H](OCc3ccccc3-c3ccccc3)CN2C(=O)c2ccccc2C(=O)c2ccc(F)cc2)cc1 [Compound B-2]
IC50 (cPLA2): 84 nM
IC50 [1]: 4000 nM

O=C1NC(=O)/C(=C/c2ccc(NC(=O)[C@@H]3C[C@@H](OCc4ccccc4-c4ccccc4)CN3C(=O)c3ccccc3C(=O)c3ccc(Cl)cc3)cc2)S1 [Compound B-3]
IC50 (cPLA2): 420 nM
IC50 [1]: 3900 nM

O=C1NC(=S)S/C1=C\c1ccc(NC(=O)[C@@H]2C[C@@H](OCc3ccccc3-c3ccccc3)CN2C(=O)c2ccccc2C(=O)c2ccc(Cl)cc2)cc1 [Compound B-4]
IC50 (cPLA2): 130 nM
IC50 [1]: 5600 nM

Cc1ccc(C(=O)c2ccccc2C(=O)N2C[C@H](OCc3ccccc3-c3ccccc3)C[C@H]2C(=O)Nc2ccc(/C=C3\SC(=O)NC3=O)cc2)cc1 [Compound B-5]
IC50 (cPLA2): 440 nM
IC50 [1]: 7400 nM

Cc1ccc(C(=O)c2ccccc2C(=O)N2C[C@H](OCc3ccccc3-c3ccccc3)C[C@H]2C(=O)Nc2ccc(/C=C3\SC(=S)NC3=O)cc2)cc1 [Compound B-6]
IC50 (cPLA2): 140 nM
IC50 [1]: 7100 nM

O=C1NC(=S)S/C1=C\c1ccc(NC(=O)[C@@H]2C[C@@H](OCc3ccccc3-c3ccccc3)CN2C(=O)c2ccccc2C(=O)c2ccc(F)cc2)s1 [Compound B-7]
IC50 (cPLA2): 1000 nM
IC50 [1]: 8100 nM

O=C1NC(=O)/C(=C/c2ccc(NC(=O)[C@@H]3C[C@@H](OCc4ccccc4-c4ccccc4)CN3C(=O)c3ccccc3C(=O)c3ccc(F)cc3)s2)S1 [Compound B-8]
IC50 (cPLA2): 1000 nM
IC50 [1]: 2700 nM

O=C1NC(=O)/C(=C/c2ccc(COC[C@@H]3C[C@@H](OCc4ccccc4-c4ccccc4)CN3C(=O)c3ccccc3C(=O)c3ccc(F)cc3)cc2)S1 [Compound C-1]
IC50 (cPLA2): 350 nM
IC50 [1]: 2300 nM

O=C1NC(=S)S/C1=C\c1ccc(COC[C@@H]2C[C@@H](OCc3ccccc3-c3ccccc3)CN2C(=O)c2ccccc2C(=O)c2ccc(F)cc2)cc1 [Compound C-2]
IC50 (cPLA2): 1100 nM
IC50 [1]: 2200 nM

O=C1NC(=S)S/C1=C\c1ccc(CC[C@@H]2C[C@@H](OCc3ccccc3-c3ccccc3)CN2C(=O)c2ccccc2C(=O)c2ccc(F)cc2)cc1 [Compound E-1]
IC50 (cPLA2): 1100 nM
IC50 [1]: 2200 nM

O=C1NC(=O)/C(=C/c2ccc(CC[C@@H]3C[C@@H](OCc4ccccc4-c4ccccc4)CN3C(=O)c3ccccc3C(=O)c3ccc(F)cc3)cc2)S1 [Compound E-2]
IC50 (cPLA2): 280 nM
IC50 [1]: 1100 nM

O=C1NC(=S)S/C1=C\c1ccc(C=C[C@@H]2C[C@@H](OCc3ccccc3-c3ccccc3)CN2C(=O)c2ccccc2C(=O)c2ccc(F)cc2)cc1 [Compound E-3]
IC50 (cPLA2): 730 nM
IC50 [1]: 6000 nM

O=C1NC(=O)/C(=C/c2ccc(C=C[C@@H]3C[C@@H](OCc4ccccc4-c4ccccc4)CN3C(=O)c3ccccc3C(=O)c3ccc(F)cc3)cc2)S1 [Compound E-4]
IC50 (cPLA2): 1100 nM
IC50 [1]: 1200 nM

O=C1NC(=S)S/C1=C\c1ccc(/C=C\[C@@H]2C[C@@H](OCc3ccccc3-c3ccccc3)CN2C(=O)c2ccccc2C(=O)c2ccc(F)cc2)s1 [Compound E-5]
IC50 (cPLA2): 750 nM
IC50 [1]: 3500 nM

O=C1NC(=O)/C(=C/c2ccc(CCC[C@@H]3C[C@@H](OCc4ccccc4-c4ccccc4)CN3C(=O)c3ccccc3C(=O)c3ccc(F)cc3)cc2)S1 [Compound E-9]
IC50 (cPLA2): 1000 nM
IC50 [1]: 6500 nM

O=C1NC(=O)/C(=C/c2ccc(/C=C\C[C@@H]3C[C@@H](OCc4ccccc4-c4ccccc4)CN3C(=O)c3ccccc3C(=O)c3ccc(F)cc3)cc2)S1 [Compound E-12]
IC50 (cPLA2): 350 nM
IC50 [1]: 5700 nM

O=C1NC(=O)/C(=C/c2ccc(/C=C/C[C@@H]3C[C@@H](OCc4ccccc4-c4ccccc4)CN3C(=O)c3ccccc3C(=O)c3ccc(F)cc3)cc2)S1 [Compound E-14]
IC50 (cPLA2): 98 nM
IC50 [1]: 5600 nM

O=C(C[C@@H]1C[C@@H](OCc2ccccc2-c2ccccc2)CN1C(=O)c1ccccc1C(=O)c1ccc(F)cc1)Nc1ccc(/C=C2\SC(=S)NC2=O)cc1 [Compound F-3]
IC50 (cPLA2): 420 nM
IC50 [1]: 3000 nM

CN(C[C@@H]1C[C@@H](OCc2ccccc2-c2ccccc2)CN1C(=O)c1ccccc1C(=O)c1ccc(F)cc1)C(=O)c1ccc(/C=C2\SC(=O)NC2=O)cc1 [Compound G-1]
IC50 (cPLA2): 780 nM
IC50 [1]: 980 nM

O=C1NC(=O)/C(=C/c2ccc(C(=O)NC[C@@H]3C[C@H](SCc4ccccc4-c4ccccc4)CN3C(=O)c3ccccc3C(=O)c3ccc(F)cc3)cc2)S1 [Compound I-1]
IC50 (cPLA2): 100 nM
IC50 [1]: 260 nM

O=C1NC(=O)/C(=C/c2ccc(C(=O)NC[C@@H]3C[C@H](SCc4ccccc4)CN3C(=O)c3ccccc3C(=O)c3ccccc3)cc2)S1 [Compound I-2]
IC50 (cPLA2): 1000 nM
IC50 [1]: 660 nM

O=C1NC(=O)/C(=C/c2ccc(S(=O)(=O)NC[C@@H]3C[C@@H](SCc4ccccc4-c4ccccc4)CN3C(=O)c3ccccc3C(=O)c3ccc(F)cc3)cc2)S1 [Compound I-3]
IC50 (cPLA2): 55 nM
IC50 [1]: 980 nM

O=C1NC(=S)S/C1=C\c1ccc(S(=O)(=O)NC[C@@H]2C[C@@H](SCc3ccccc3-c3ccccc3)CN2C(=O)c2ccccc2C(=O)c2ccc(F)cc2)cc1 [Compound I-4]
IC50 (cPLA2): 480 nM
IC50 [1]: 1300 nM

O=C1NC(=O)/C(=C/c2ccc(C(=O)NC[C@@H]3C[C@@H](SCc4ccccc4-c4ccccc4)CN3C(=O)c3ccccc3C(=O)c3ccc(F)cc3)cc2)S1 [Compound I-5]
IC50 (cPLA2): 34 nM
IC50 [1]: 490 nM

O=C1NC(=S)S/C1=C\c1ccc(C(=O)NC[C@@H]2C[C@@H](SCc3ccccc3-c3ccccc3)CN2C(=O)c2ccccc2C(=O)c2ccc(F)cc2)cc1 [Compound I-6]
IC50 (cPLA2): 71 nM
IC50 [1]: 260 nM
